Measured values taken from ChEMBL document CHEMBL1201862, “PubChem BioAssay data set” (2004).
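Method: 48-hour compound exposure of cells in 96-well plates, five concentrations, linear interpolation of endpoints. The concentration for 50% growth inhibition is given as GI50.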 Active and inactive are the calls of the source. Rule as the data show it: active = GI50 up to about 1.1 µM and inactive = higher.

Columns and labels:
Test in all cases: DTP human tumour cell line panel, 48 h
[1] = tested on: NCI-H522
[2] = tested on: PC-3
[3] = tested on: A498
[4] = tested on: HCT-15
[5] = tested on: EKVX
[6] = tested on: Malme-3M
[7] = tested on: UACC-62
[8] = tested on: SNB-75
[9] = tested on: UACC-257
[10] = tested on: SK-MEL-2
[11] = tested on: SN12C
[12] = tested on: MDA-N
[13] = tested on: HCT-116
[14] = tested on: OVCAR-3
[15] = tested on: RXF 393
[16] = tested on: ACHN
[17] = tested on: BT-549
[18] = tested on: SF-268
[19] = tested on: K562
[20] = tested on: NCI-H460
[21] = tested on: SNB-19
[22] = tested on: UO-31
[23] = tested on: OVCAR-8
[24] = tested on: RPMI-8226
[25] = tested on: NCI-H23
[26] = tested on: SW-620
[27] = tested on: NCI/ADR-RES
[28] = tested on: HOP-62
[29] = tested on: OVCAR-5
[30] = tested on: SF-295
[31] = tested on: CCRF-CEM
[32] = tested on: SF-539
[33] = tested on: SK-OV-3
[34] = tested on: DU-145
[35] = tested on: CAKI-1
[36] = tested on: MCF7
[37] = tested on: COLO 205
[38] = tested on: SK-MEL-28
[39] = tested on: MDA-MB-435
[40] = tested on: OVCAR-4
[41] = tested on: IGROV-1
[42] = tested on: A549
[43] = tested on: KM12
[44] = tested on: HCC 2998
[45] = tested on: 786-0
[46] = tested on: MDA-MB-231
[47] = tested on: MOLT-4
[48] = tested on: SR
[49] = tested on: LOX IMVI
[50] = tested on: M14
[51] = tested on: TK-10
[52] = tested on: HT-29
[53] = tested on: U-251
[54] = tested on: SK-MEL-5
[55] = tested on: NCI-H226
[56] = tested on: HL-60

With `CSC(=S)OC1C(CO[Si](C)(C)C(C)(C)C)OC2OC(C)(C)OC21` (stereo not drawn) the GI50 [1] was 15.8 µM (inactive), the GI50 [2] was 15.8 µM (inactive) and the GI50 [3] was 21.8 µM (inactive). For the same compound, the GI50 [4] was 18.4 µM, the GI50 [5] was 20.3 µM (inactive) and the GI50 [6] was 14.8 µM (inactive). The GI50 [7] was 17 µM (inactive), the GI50 [8] was > 100 µM (inactive) and the GI50 [9] was 17.1 µM (inactive). The GI50 [10] was 15 µM (inactive), the GI50 [11] was 21.3 µM (inactive) and the GI50 [12] was 29.2 µM (inactive). For the same compound, the GI50 [13] was 18.5 µM (inactive), the GI50 [14] was 17 µM (inactive) and the GI50 [15] was 20.6 µM (inactive). The GI50 [16] was 17.1 µM (inactive), the GI50 [17] was 30.8 µM (inactive) and the GI50 [18] was 15.2 µM (inactive). The GI50 [19] was 17.1 µM (inactive), the GI50 [20] was 17 µM (inactive) and the GI50 [21] was 21 µM (inactive). The GI50 [22] was 17.7 µM (inactive), the GI50 [23] was 27.3 µM (inactive) and the GI50 [24] was 16.3 µM (inactive). The GI50 [25] was 19.9 µM (inactive), the GI50 [26] was 17.3 µM (inactive) and the GI50 [27] was 14.7 µM (inactive). For the same compound, the GI50 [28] was 18.4 µM (inactive), the GI50 [29] was 21.3 µM (inactive) and the GI50 [30] was 17.4 µM (inactive). For the same compound, the GI50 [31] was 16.7 µM (inactive), the GI50 [32] was 20.2 µM (inactive) and the GI50 [33] was 20.2 µM (inactive). For the same compound, the GI50 [34] was 33.5 µM (inactive), the GI50 [35] was 31.6 µM (inactive) and the GI50 [36] was 16.3 µM (inactive). The GI50 [37] was 19.2 µM (inactive), the GI50 [38] was 40.6 µM (inactive) and the GI50 [39] was 33.2 µM (inactive). For the same compound, the GI50 [40] was 49.4 µM (inactive), the GI50 [41] was 18.3 µM (inactive) and the GI50 [42] was 25.5 µM (inactive). For the same compound, the GI50 [43] was 15.6 µM (inactive), the GI50 [44] was 21.3 µM (inactive) and the GI50 [45] was 19.5 µM (inactive). For the same compound, the GI50 [46] was 17.7 µM (inactive), the GI50 [47] was 15.3 µM (inactive) and the GI50 [48] was 13.7 µM (inactive). For the same compound, the GI50 [49] was 15.7 µM (inactive), the GI50 [50] was 47 µM (inactive) and the GI50 [51] was 20.5 µM (inactive). The GI50 [52] was 11.4 µM (inactive), the GI50 [53] was 17.5 µM (inactive) and the GI50 [54] was 16.8 µM (inactive). The GI50 [55] was 14.5 µM (inactive).
With `CCOc1ccc2nc(-c3ccc(O)cc3)sc2c1` the GI50 [1] was 4.82 µM (inactive), the GI50 [2] was 58.7 µM (inactive) and the GI50 [3] was 30.4 µM (inactive). For the same compound, the GI50 [4] was 97.3 µM, the GI50 [5] was 10.3 µM (inactive) and the GI50 [6] was > 100 µM (inactive). For the same compound, the GI50 [7] was 56.9 µM (inactive), the GI50 [9] was 0.166 µM (active) and the GI50 [10] was 71 µM (inactive). The GI50 [11] was > 100 µM (inactive), the GI50 [12] was > 100 µM (inactive) and the GI50 [13] was 69.3 µM (inactive). The GI50 [14] was 46.9 µM (inactive), the GI50 [15] was 37 µM (inactive) and the GI50 [16] was 61.2 µM (inactive). The GI50 [17] was 31.1 µM (inactive), the GI50 [18] was 19.6 µM (inactive) and the GI50 [19] was > 100 µM (inactive). For the same compound, the GI50 [20] was 77.1 µM (inactive), the GI50 [21] was 23.9 µM (inactive) and the GI50 [22] was 17.2 µM (inactive). For the same compound, the GI50 [23] was 48.6 µM (inactive), the GI50 [24] was 0.106 µM (active) and the GI50 [25] was 23.5 µM (inactive). For the same compound, the GI50 [26] was > 100 µM (inactive), the GI50 [27] was > 100 µM (inactive) and the GI50 [29] was > 100 µM (inactive). For the same compound, the GI50 [30] was 20.1 µM (inactive), the GI50 [32] was 45 µM (inactive) and the GI50 [33] was 24.2 µM (inactive). The GI50 [34] was > 100 µM (inactive), the GI50 [35] was 36.7 µM (inactive) and the GI50 [36] was > 100 µM (inactive). The GI50 [37] was > 100 µM (inactive), the GI50 [39] was > 100 µM (inactive) and the GI50 [41] was > 100 µM (inactive). The GI50 [42] was > 100 µM (inactive), the GI50 [43] was 35 µM (inactive) and the GI50 [56] was 2 µM (inactive). For the same compound, the GI50 [46] was > 100 µM (inactive), the GI50 [47] was > 100 µM (inactive) and the GI50 [49] was > 100 µM (inactive). The GI50 [50] was > 100 µM (inactive), the GI50 [51] was 73.1 µM (inactive) and the GI50 [52] was 46.6 µM (inactive). The GI50 [53] was 43.9 µM (inactive), the GI50 [54] was 89.5 µM (inactive) and the GI50 [55] was > 100 µM (inactive).
